Measurements as given in the NIST ThermoML archive (doi:10.1021/je7002836).

Legend:
[1] = xn = mol fraction of the nth substance listed; details: 101 kPa, Liquid
[2] = molar heat capacity at constant pressure; xn = mol fraction of the nth substance listed; details: 101 kPa, Liquid

CCCC[n+]1cccc(C)c1.F[B-](F)(F)F [1-butyl-3-methylpyridinium tetrafluoroborate] + O
Details	mass density, [1] [kg/m3]	molar heat capacity at constant pressure, [2] [J/K/mol]
293.15 K, x1 = 0.0015	–	76.7
293.15 K, x1 = 0.002	–	77.4
293.15 K, x1 = 0.0027	–	77.7
293.15 K, x1 = 0.0036	–	78.1
293.15 K, x1 = 0.0102	–	81
293.15 K, x1 = 0.0494	1066	–
293.15 K, x1 = 0.0938	–	112.7
293.15 K, x1 = 0.0973	1095.9	–
293.15 K, x1 = 0.1885	–	142.4
293.15 K, x1 = 0.2312	1139.7	–
293.15 K, x1 = 0.2704	–	167
293.15 K, x1 = 0.3559	1157.3	–
293.15 K, x1 = 0.362	–	193.8
293.15 K, x1 = 0.4035	1161.8	–
293.15 K, x1 = 0.4454	–	218.2
293.15 K, x1 = 0.5195	1167.9	–
293.15 K, x1 = 0.6432	–	275.2
293.15 K, x1 = 0.7087	1179.5	–
293.15 K, x1 = 0.7512	1181.2	–
293.15 K, x1 = 0.8094	–	325.2
293.15 K, x1 = 0.8791	–	346
293.15 K, x1 = 0.8838	1183.2	–
293.15 K, x1 = 0.9468	–	367.8
293.15 K, x1 = 1	1188.6	385.8
298.15 K, x1 = 0.0015	–	76.7
298.15 K, x1 = 0.002	–	77.4
298.15 K, x1 = 0.0027	–	77.7
298.15 K, x1 = 0.0036	–	78.2
298.15 K, x1 = 0.0102	–	81.1
298.15 K, x1 = 0.0494	1063.3	–
298.15 K, x1 = 0.0938	–	113.1
298.15 K, x1 = 0.0973	1092.7	–
298.15 K, x1 = 0.1885	–	143.1
298.15 K, x1 = 0.2312	1136	–
298.15 K, x1 = 0.2704	–	167.8
298.15 K, x1 = 0.3559	1153.6	–
298.15 K, x1 = 0.362	–	195
298.15 K, x1 = 0.4035	1158.2	–
298.15 K, x1 = 0.4454	–	219.3
298.15 K, x1 = 0.5195	1164.3	–
298.15 K, x1 = 0.6432	–	276.9
298.15 K, x1 = 0.7087	1176	–
298.15 K, x1 = 0.7512	1177.8	–
298.15 K, x1 = 0.8094	–	327.3
298.15 K, x1 = 0.8791	–	348.3
298.15 K, x1 = 0.8838	1179.8	–
298.15 K, x1 = 0.9468	–	370.4
298.15 K, x1 = 1	1185.2	387.7
303.15 K, x1 = 0.0015	–	76.8
303.15 K, x1 = 0.002	–	77.5
303.15 K, x1 = 0.0027	–	77.7
303.15 K, x1 = 0.0036	–	78.2
303.15 K, x1 = 0.0102	–	81.2
303.15 K, x1 = 0.0494	1060.4	–
303.15 K, x1 = 0.0938	–	113.4
303.15 K, x1 = 0.0973	1089.4	–
303.15 K, x1 = 0.1885	–	143.8
303.15 K, x1 = 0.2312	1132.3	–
303.15 K, x1 = 0.2704	–	168.6
303.15 K, x1 = 0.3559	1150	–
303.15 K, x1 = 0.362	–	196.1
303.15 K, x1 = 0.4035	1154.5	–
303.15 K, x1 = 0.4454	–	220.5
303.15 K, x1 = 0.5195	1160.8	–
303.15 K, x1 = 0.6432	–	278.6
303.15 K, x1 = 0.7087	1172.5	–
303.15 K, x1 = 0.7512	1174.3	–
303.15 K, x1 = 0.8094	–	329.5
303.15 K, x1 = 0.8791	–	350.8
303.15 K, x1 = 0.8838	1176.3	–
303.15 K, x1 = 0.9468	–	373
303.15 K, x1 = 1	1181.7	390.1
308.15 K, x1 = 0.0015	–	76.9
308.15 K, x1 = 0.002	–	77.6
308.15 K, x1 = 0.0027	–	77.8
308.15 K, x1 = 0.0036	–	78.3
308.15 K, x1 = 0.0102	–	81.3
308.15 K, x1 = 0.0494	1057.5	–
308.15 K, x1 = 0.0938	–	113.8
308.15 K, x1 = 0.0973	1086	–
308.15 K, x1 = 0.1885	–	144.5
308.15 K, x1 = 0.2312	1128.7	–
308.15 K, x1 = 0.2704	–	169.5
308.15 K, x1 = 0.3559	1146.4	–
308.15 K, x1 = 0.362	–	197.3
308.15 K, x1 = 0.4035	1150.9	–
308.15 K, x1 = 0.4454	–	221.7
308.15 K, x1 = 0.5195	1157.2	–
308.15 K, x1 = 0.6432	–	280.3
308.15 K, x1 = 0.7087	1169.1	–
308.15 K, x1 = 0.7512	1170.8	–
308.15 K, x1 = 0.8094	–	331.7
308.15 K, x1 = 0.8791	–	353.3
308.15 K, x1 = 0.8838	1172.9	–
308.15 K, x1 = 0.9468	–	375.7
308.15 K, x1 = 1	1178.3	392.8
313.15 K, x1 = 0.0015	–	77
313.15 K, x1 = 0.002	–	77.6
313.15 K, x1 = 0.0027	–	77.9
313.15 K, x1 = 0.0036	–	78.4
313.15 K, x1 = 0.0102	–	81.5
313.15 K, x1 = 0.0494	1054.5	–
313.15 K, x1 = 0.0938	–	114.2
313.15 K, x1 = 0.0973	1082.5	–
313.15 K, x1 = 0.1885	–	145.2
313.15 K, x1 = 0.2312	1125	–
313.15 K, x1 = 0.2704	–	170.4
313.15 K, x1 = 0.3559	1142.7	–
313.15 K, x1 = 0.362	–	198.4
313.15 K, x1 = 0.4035	1147.3	–
313.15 K, x1 = 0.4454	–	222.8
313.15 K, x1 = 0.5195	1153.7	–
313.15 K, x1 = 0.6432	–	282.1
313.15 K, x1 = 0.7087	1165.6	–
313.15 K, x1 = 0.7512	1167.4	–
313.15 K, x1 = 0.8094	–	334
313.15 K, x1 = 0.8791	–	355.8
313.15 K, x1 = 0.8838	1169.5	–
313.15 K, x1 = 0.9468	–	378.4
313.15 K, x1 = 1	1174.9	395.9
318.15 K, x1 = 0.0015	–	77.1
318.15 K, x1 = 0.002	–	77.7
318.15 K, x1 = 0.0027	–	78
318.15 K, x1 = 0.0036	–	78.4
318.15 K, x1 = 0.0102	–	81.7
318.15 K, x1 = 0.0494	1051.3	–
318.15 K, x1 = 0.0938	–	114.7
318.15 K, x1 = 0.0973	1079	–
318.15 K, x1 = 0.1885	–	146
318.15 K, x1 = 0.2312	1121.2	–
318.15 K, x1 = 0.2704	–	171.4
318.15 K, x1 = 0.3559	1139.1	–
318.15 K, x1 = 0.362	–	199.5
318.15 K, x1 = 0.4035	1143.7	–
318.15 K, x1 = 0.4454	–	224
318.15 K, x1 = 0.5195	1150.2	–
318.15 K, x1 = 0.6432	–	283.8
318.15 K, x1 = 0.7087	1162.2	–
318.15 K, x1 = 0.7512	1163.9	–
318.15 K, x1 = 0.8094	–	336.3
318.15 K, x1 = 0.8791	–	358.5
318.15 K, x1 = 0.8838	1166.1	–
318.15 K, x1 = 0.9468	–	381.3
318.15 K, x1 = 1	1171.6	399.3
